According to patent publication US6610501B2, “Porcine protein and uses thereof” (New York Blood Center, Inc., priority 1999, dated 2003):

Key:
Assay type in all cases: cell-based, porcine
pRBCs [1] = conditions: 1 mg/ml trisaccharide, time course experiment at 37° C.; FIG. 5
Description: FIG. 3 represents the procedure for measuring human complement-mediated hemolysis. The procedure is outlined in panel B. Hemolysis (A) is plotted as percent lysis versus volume of human serum added (μl). Lysis is defined as (OD-ODo)/(OD100−ODo), where OD represents the amount of lysis, as measured by the absorbance at 541 nm, ODo is the absorbance at 541 nm that is due to spontaneous lysis in the absence of any additions, and OD100 is the absorbance at 541 nm that is due to 100% lysis of red cells under the experimental conditions. […]
The hemolysis was monitored up to 4 hr. […]
In blood transfusions between humans, mismatched red cells undergo intravascular destruction by the same mechanism as complement-induced hemolysis observed in vitro. […] Since this serum was derived from type B individuals, as determined by hemagglutination assays, we used only non-type A pRBCs in the complement assays to exclude the binding of anti-A antibody present in the serum.
The human serum (between 3-18 μl) was mixed with 40 μl of 5% pRBCs (about 2×10^7 cells) in a total volume of 210 μl. […] Hemoglobin molecules released from the lysed cells into the supernatant were quantitated by measuring the absorbance at 541 nm. […]
We also measured the time course for complement-mediated hemolysis of pRBCs (FIG. 5). […]

pRBCs [2] = test: Flow cytometry analysis of binding of human xenoreactive antibodies to pRBCs
Experimental: FIG. 7 represents the effect of the trisaccharide of FIG. 4 on the binding of fractions S1 and S2 to pRBCs. 40 μl of the trisaccharide (2 mg/ml) was added to 2 μl of S1 or S2 plus 38 μl of PBS (final concentration of trisaccharide 1 mg/ml), followed by incubation at 4° C. overnight. pRBCs were then added and flow cytometry analysis performed, using anti-human IgG (H+L) conjugated with phycoerythrin (PE) as the secondary antibody. Sample 1: negative control lacking the primary and secondary antibodies. Sample 2: negative control containing the secondary antibody only. Samples 3 and 4: fraction S1 without and with the trisaccharide of FIG. 4, respectively. Samples 5 and 6: fraction S2 without and with the trisaccharide of FIG. 4, respectively.
FIG. 8 represents the effect of concentration of the trisaccharide of FIG. 4 on the binding of S1 to pRBCs. Fraction S1 was incubated with various amounts of the trisaccharide under the same conditions described in […]. The binding of IgG (curve 1) and IgM (curve 2) molecules from fraction S1 was monitored by flow cytometry, using anti-human IgG and anti-human IgM, respectively. The data from the flow cytometry analyses were plotted as mean fluorescent intensity (MFI) versus the final concentration of trisaccharide, and the curves were generated by nonlinear curve fitting.
FIG. 9 represents the effect of the trisaccharide of FIG. 4 on the binding of anti-αGal and non-αGal antibodies to pRBCs. The control samples (1 and 2) were as described for FIG. 7. (A): anti-αGal antibody incubated in the absence (curve 3) or presence (curve 4) of the trisaccharide (1 mg/ml). (B): Non-αGal antibodies incubated in the absence (curve 3) or presence (curve 4) of the trisaccharide (1 mg/ml). […]
Various fractions derived from human serum were analyzed by flow cytometry. […]
To directly detect non-anti-αGal antibodies from the S2 fraction, we isolated these antibodies by using a pRBC absorption/elution method. The eluted fraction (non-αGal antibodies) was then measured for its binding to pRBCs in the presence or absence of the trisaccharide. […]

pRBCs [3] = test: Effect of ssDNA and thyroglobulin on S1- or S2-induced hemagglutination of pRBCs; conditions: final concentration 1 mg/ml, 4° C. 3 hr
Description: To determine whether the xenoreactive antibodies that we characterized in the binding of pRBCs are polyreactive, we tested the effect of ssDNA and thyroglobulin on binding of antibodies by hemagglutination assays and flow cytometry analyses (Turman M A, Casali P, Notkins A L, Bach F H, and Platt J L (1991) Transplantation 52:710-717). To ensure that the xenoreactive antibodies were not present in excess, we titrated the amount of antibodies used in the hemagglutination assays and chose the dilution that produced an intermediate strength (2+ or 3+) for inhibition. Fraction S1 or S2 was pre-incubated with ssDNA or thyroglobulin (final concentration 1 mg/ml) at 4° C. for 3 hr before adding pRBCs for the hemagglutination assay.

Molecule	inhibition of cell lysis (pRBCs [1])	inhibition of anti-αGal antibody in normal human serum (pRBCs [2]; trisaccharide 1 mg/ml, flow cytometry)	inhibition of IgG versus IgM binding of S1 to pRBCs (pRBCs [2]; various trisaccharide concentrations, FIG. 8)	inhibitory effect on S1- or S2-induced hemagglutination (pRBCs [3])	effect on binding of xenoreactive antibodies to pRBCs (pRBCs [2]; pre-incubation at 0.01, 0.1 or 1.0 mg/ml, FIG. 11)
CC(=O)N[C@H]1C(O)O[C@H](CO)[C@@H](O[C@@H]2O[C@H](CO)[C@H](O)[C@H](O[C@H]3O[C@H](CO)[C@H](O)[C@H](O)[C@H]3O)[C@H]2O)[C@@H]1O (some centres unmarked) [trisaccharide, Galα1,3Galβ1,4GlcNAc]	approximately 50%	completely inhibited	inhibit IgG binding more efficiently than IgM binding		
thyroglobulin: thyroglobulin used to test polyreactivity of the antibodies				neither ssDNA nor thyroglobulin showed any inhibitory effect	little affected, if any
